Measured values reported in PubChem BioAssay (NCI).
Several values for one entry are separate records, joined by “and”; a condition that tells them apart may be missing. Identical values can stand only once.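 Tested at 5 concentrations; 48 h exposure; 96-well plates; endpoints linearly interpolated, else capped at highest concentration. The concentration for 50% growth inhibition is given as GI50. TGI is the concentration that stops growth completely.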

Experiments:
Test in all cases: NCI-60 cell line screen, 48 h
NCI-H460 lung = tested on: NCI-H460 lung
UACC-62 melanoma = tested on: UACC-62 melanoma
SW-620 colon = tested on: SW-620 colon
HCT-116 colon = tested on: HCT-116 colon
OVCAR-5 ovarian = tested on: OVCAR-5 ovarian
HCC-2998 colon = tested on: HCC-2998 colon
NCI-H23 lung = tested on: NCI-H23 lung
MDA-MB-435 = tested on: MDA-MB-435
CAKI-1 renal = tested on: CAKI-1 renal
ACHN renal = tested on: ACHN renal

Cc1cnc(/C=N\NC(N)=S)c2cccc(N)c12 was tested, and the GI50 (NCI-H460 lung) was 2.61 µM, the TGI (NCI-H460 lung) was > 37.7 µM and the GI50 (UACC-62 melanoma) was 1.13 µM. For the same compound, the TGI (UACC-62 melanoma) was 9.26 µM and 6.67 µM, the GI50 (SW-620 colon) was 3.78 µM and the TGI (SW-620 colon) was > 100 µM. For the same compound, the GI50 (HCT-116 colon) was 4.41 µM, the TGI (HCT-116 colon) was > 100 µM and 28.3 µM and the GI50 (OVCAR-5 ovarian) was > 21.3 µM. The TGI (OVCAR-5 ovarian) was > 100 µM, the TGI (HCC-2998 colon) was > 100 µM and the GI50 (NCI-H23 lung) was 2.14 µM. For the same compound, the TGI (NCI-H23 lung) was > 100 µM, the GI50 (MDA-MB-435) was 3.9 µM and the TGI (MDA-MB-435) was > 100 µM. The GI50 (CAKI-1 renal) was 2.51 µM, the TGI (CAKI-1 renal) was > 57 µM and the GI50 (ACHN renal) was 1.51 µM. The TGI (ACHN renal) was > 30.9 µM.

With CN(N=O)C(=O)N[C@@H](C=O)[C@@H](O)[C@H](O)[C@H](O)CO the GI50 (NCI-H460 lung) was > 750 µM, the TGI (NCI-H460 lung) was > 750 µM and the GI50 (UACC-62 melanoma) was > 750 µM. The TGI (UACC-62 melanoma) was > 750 µM, the GI50 (SW-620 colon) was > 750 µM and the TGI (SW-620 colon) was 590 µM and > 750 µM. The GI50 (HCT-116 colon) was > 750 µM, the TGI (HCT-116 colon) was 653 µM and > 750 µM and the GI50 (OVCAR-5 ovarian) was > 750 µM. The TGI (OVCAR-5 ovarian) was > 750 µM, the GI50 (HCC-2998 colon) was > 750 µM and the TGI (HCC-2998 colon) was 600 µM and > 750 µM. The GI50 (NCI-H23 lung) was > 750 µM, the TGI (NCI-H23 lung) was > 750 µM and the TGI (MDA-MB-435) was > 750 µM. For the same compound, the GI50 (CAKI-1 renal) was > 750 µM, the TGI (CAKI-1 renal) was 457 µM and > 750 µM and the TGI (ACHN renal) was > 750 µM.

CN(C)CCNC(=O)Cn1cc([N+](=O)[O-])c(=O)c2ccccc21 was tested, and the TGI (NCI-H460 lung) was > 100 µM, the TGI (UACC-62 melanoma) was > 100 µM and the TGI (SW-620 colon) was > 100 µM. For the same compound, the TGI (HCT-116 colon) was > 100 µM, the TGI (OVCAR-5 ovarian) was > 100 µM and the TGI (HCC-2998 colon) was > 100 µM. The TGI (NCI-H23 lung) was > 100 µM, the TGI (MDA-MB-435) was > 100 µM and the TGI (CAKI-1 renal) was > 100 µM. For the same compound, the TGI (ACHN renal) was > 100 µM.

Work on C/C(=N\N=C(\[Se])N1CCN(c2ccccn2)CC1)c1ccccn1 yielded a TGI (NCI-H460 lung) of 16 µM, a TGI (SW-620 colon) of 12.4 µM and a GI50 (HCT-116 colon) of 0.00589 µM. It also gave a TGI (HCT-116 colon) of 6.27 µM, a GI50 (OVCAR-5 ovarian) of 0.00643 µM and a TGI (OVCAR-5 ovarian) of 21.8 µM. It also gave a TGI (HCC-2998 colon) of 23.3 µM, a GI50 (NCI-H23 lung) of 0.023 µM and a TGI (NCI-H23 lung) of 21.8 µM. The GI50 (MDA-MB-435) was 0.0967 µM, the TGI (MDA-MB-435) was 20.3 µM and the GI50 (CAKI-1 renal) was 0.0408 µM. It also gave a TGI (CAKI-1 renal) of 21.3 µM, a GI50 (ACHN renal) of 0.00847 µM and a TGI (ACHN renal) of 16.9 µM.

COC(=O)[C@]12CC[C@@H](C)[C@H](C)[C@@H]1C1=CC[C@@H]3[C@@]4(C)C(C=O)=C[C@@](C)(COC(=O)c5ccco5)[C@@H]4C(=O)C[C@@]3(C)[C@]1(C)CC2 was tested, and the GI50 (NCI-H460 lung) was 3.92 µM, the TGI (NCI-H460 lung) was > 100 µM and the GI50 (UACC-62 melanoma) was 0.232 µM. For the same compound, the TGI (UACC-62 melanoma) was 2.34 µM, the GI50 (SW-620 colon) was 4.9 µM and the TGI (SW-620 colon) was > 100 µM. The GI50 (HCT-116 colon) was 3.68 µM, the TGI (HCT-116 colon) was > 100 µM and the GI50 (OVCAR-5 ovarian) was 68.8 µM. The TGI (OVCAR-5 ovarian) was > 100 µM, the GI50 (HCC-2998 colon) was 6.22 µM and the TGI (HCC-2998 colon) was > 100 µM. The GI50 (NCI-H23 lung) was 4.33 µM, the TGI (NCI-H23 lung) was > 100 µM and the GI50 (MDA-MB-435) was 0.193 µM. The TGI (MDA-MB-435) was 4.33 µM, the GI50 (CAKI-1 renal) was 3.77 µM and the TGI (CAKI-1 renal) was > 100 µM. For the same compound, the GI50 (ACHN renal) was 1.22 µM and the TGI (ACHN renal) was > 100 µM.

C/C(=C\C1=C(Cl)C(=O)c2ccccc2C1=O)C(=O)O showed a GI50 (NCI-H460 lung) of 21.9 µM, a TGI (NCI-H460 lung) of 45.1 µM and a GI50 (UACC-62 melanoma) of 17.2 µM. The TGI (UACC-62 melanoma) was 31.5 µM, the GI50 (SW-620 colon) was 21.7 µM and the TGI (SW-620 colon) was 37.4 µM. The GI50 (HCT-116 colon) was 28.4 µM, the TGI (HCT-116 colon) was > 100 µM and the GI50 (OVCAR-5 ovarian) was 22.5 µM. It also gave a TGI (OVCAR-5 ovarian) of 37.4 µM, a GI50 (HCC-2998 colon) of 18.9 µM and a TGI (HCC-2998 colon) of 33.3 µM. For the same compound, the GI50 (NCI-H23 lung) was 21.5 µM, the TGI (NCI-H23 lung) was 45.7 µM and the GI50 (MDA-MB-435) was 19.4 µM. For the same compound, the TGI (MDA-MB-435) was 34.8 µM, the GI50 (CAKI-1 renal) was 22.1 µM and the TGI (CAKI-1 renal) was 36.6 µM. It also gave a GI50 (ACHN renal) of 18.5 µM and a TGI (ACHN renal) of 32.7 µM.

With Cc1cccc(C(=O)/C=C/SC(=NC#N)SCc2ccccc2)c1 the GI50 (NCI-H460 lung) was 36.5 µM, the TGI (NCI-H460 lung) was > 100 µM and the GI50 (UACC-62 melanoma) was 19.4 µM. The TGI (UACC-62 melanoma) was 40.7 µM, the GI50 (SW-620 colon) was 6.45 µM and the TGI (SW-620 colon) was > 100 µM. The GI50 (HCT-116 colon) was 27.2 µM, the TGI (HCT-116 colon) was > 100 µM and the GI50 (OVCAR-5 ovarian) was 19.4 µM. The TGI (OVCAR-5 ovarian) was 38.1 µM, the GI50 (HCC-2998 colon) was 19.3 µM and the TGI (HCC-2998 colon) was 39.4 µM. It also gave a GI50 (NCI-H23 lung) of 20.9 µM, a TGI (NCI-H23 lung) of 47 µM and a GI50 (MDA-MB-435) of 23.1 µM. It also gave a TGI (MDA-MB-435) of 72.1 µM, a GI50 (CAKI-1 renal) of 13.1 µM and a TGI (CAKI-1 renal) of 39.3 µM. For the same compound, the GI50 (ACHN renal) was 25.6 µM and the TGI (ACHN renal) was 67 µM.
